The structures appear in SMILES notation. Counter-ions that a name gives are not always drawn. Some results are limits rather than exact numbers.

Experiment [1] relates to MCF-10A. The experiment is described as follows: MTT cell viability assay. The format is cell-based. Particulars: Homo sapiens, normal cells. An excerpt: (§1) All of the tested cell lines were acquired from the American Type Culture Collection (ATCC, Manassas, VA, USA), including human breast cancer cell lines (MCF-7, MDA-MB-231), human gastric cancer cell line (AGS), human colorectal cancer cell lines (HT-29, DLD-1), human glioblastoma cancer cell lines (T98G, A172), mouse astrocyte type I clone (C8-D1A), human normal epithelial breast cells (MCF-10A) and primary dermal fibroblast (HDFa). Such cell lines as AGS, MCF-7, MDA-MB-231, A172, T98G, C8-D1A, and primary dermal fibroblast (HDFa) were cultured in complete medium–DMEM (Corning, Kennebunk, ME, USA). RPMI-1640 (ATCC, Manassas, VA, USA) was used for the DLD-1 cell line, and McCoy’s 5A (PAN-Biotech, Aidenbach, Germany) for the HT-29 cell line. To all utilized media additionally was added 10% fetal bovine serum (FBS) (Eurx, Gdansk, Poland) and 1% penicillin and streptomycin solution (Corning, Kennebunk, ME, USA). MCF-10A cells were incubated in MEGM (Mammary Epithelial Cell Growth Medium) BulletKit supplemented with penicillin/streptomycin cocktail and 5% horse serum. All cells were cultured at 37 °C in an atmosphere with 5% CO₂ in tissue culture dishes (Sarstedt, Numbrecht, Germany). For experiments, cells were washed with phosphate-buffered saline (PBS) (Corning, Kennebunk, ME, USA) followed by the addition of 0.05% trypsin with 0.02% EDTA (Corning, Kennebunk, ME, USA). Scepter 3.0 cell counter (Merck Millipore, Burlington, MA, USA) was applied before each seeding to calculate the number of cells. For the next analyses, cells were reseeded in 6-well plates, 24-well plates, and 96-well plates.
(§2) MTT (3-(4,5-dimethylthiazol-2-yl)-2,5-diphenyltetrazolium bromide) assay method was utilized to analyze compound effects on cell viability. All cell lines were seeded in 96-well plates with 1 × 10^4 cells per well. After 24 h, cells were treated with the tested compounds and reference drug at concentrations of 0.1, 1, 2.5, 5, 10, and 20 µM for 24, 48, or 72 h. Next, a solution of 3-(4,5-dimethyl-2-thiazolyl)-2,5-diphenyl-2H-tetrazolium bromide (Sigma-Aldrich, St. Louis, MO, USA) in PBS with a concentration of 5 mg/mL was prepared. After the incubation with tested compounds, 10 µL of the prepared MTT solution was applied to each well, followed by 2 h of incubation at 37 °C. Next, cells underwent lysis by adding 100 µL of pre-prepared lysing buffer (containing 25 mM HCl, 2% acetic acid, 3% DMF, and 5% SDS, with a pH of 4.7). The absorbance was measured using a UV-VIS Helios Gamma (Unicam/ThermoFisher Scientific Inc., Cleveland, OH, USA) at 570 nm wavelength. The cells incubated with vehicle substance (0.1% DMSO) were taken as controls.
(§3) To investigate the cytotoxic potential of the newly synthesized compounds, a comprehensive assessment was conducted utilizing the MTT assay. This assay was applied on a diverse panel of cell lines, such as human breast cancer cell lines (MCF-7 and MDA-MB-231), human gastric cancer cell line (AGS), human colorectal cancer cell lines (HT-29 and DLD-1), human glioblastoma cancer cell lines (T98G and A172), mouse astrocyte type I clone cells (C8-D1A), primary dermal fibroblast (HDFa), and human normal breast cells (MCF-10A) for 24, 48, and/or 72 h.
(In general: Tetrazolium dyes change colour on reduction, which living cells bring about.)

In experiment [2] the test system is MDA-MB-231. The experiment is described as follows: MTT cell viability assay. The format is cell-based. The note with it: Homo sapiens.
From the text: as §1, §2, §3

In experiment [3] the test system is caspase 7. The experiment is described as follows: FLICA caspase-3/7 activity, flow cytometry. The note with it: 5 µM, 24 h, MCF-7. The format is cell-based, human. On the procedure: To determine the effects of the novel compounds on the caspases-3/7, caspase-8, caspase-9, and caspase-10 activity, the FLICA Caspase-3/7 Assay Kit, FLICA Caspase-8 Assay Kit, FLICA Caspase-9 Assay Kit, and FLICA Caspase-10 Assay Kit were applied (ImmunoChemistry Technologies, Bloomington, MN, USA). MCF-7 cells were seeded on 6-well plates (1 × 10^5 cells per well) and incubated for 24 h. Afterwards, they were treated for 24 h with tested compounds (Les-6416, Les-6418, Les-6381, Les-6423, and Les-6424) in a concentration of 5 µM and the reference drug doxorubicin hydrochloride in a concentration of 0.5 µM. Next, cells were amassed and washed two times with cold PBS, followed by resuspension in an Apoptosis Wash Buffer to a final concentration of 5 × 10^5 cells/mL. Afterwards, 290 µL of the prepared cell suspensions were transferred into tubes, followed by the addition of 10 µL of FLICA solution, prepared immediately before use, to each sample and incubated for an hour at 37 °C. Next, cells were washed two times with 2 mL of Apoptosis Wash Buffer, provided in the kit, centrifuged, and resuspended in 300 µL of the buffer. Prepared samples were assessed by a BD FACSCanto II flow cytometer (Becton Dickinson Biosciences, San Jose, CA, USA). For each sample, 1 × 10^4 events were analyzed. The obtained results were investigated by applying FACSDiva software Version 6.1.3 (BD Biosciences Systems, San Jose, CA, USA).
To further investigate the effects of the newly synthesized compounds on the process of apoptosis we decided to measure their impact on various caspases as evidence of intrinsic (caspase 9) or extrinsic (caspase 8, 10) pathways of programmed cell death by applying flow cytometry analysis after 24 h treatment of MCF-7 breast cancer cells with novel 4-thiazolidinone derivatives and reference drug doxorubicin hydrochloride. […] With 41.28 ± 5.45%, 43.23 ± 2.85%, and 41.90 ± 6.89% of cells with activated caspase 8, 10, and 9, respectively, Les-6416 continued the trend of displaying the most significant effect on the three tested caspases. […]
A general note: A flow cytometer gives signals particle by particle.

Experiment [4] concerns MCF-7 cells. The experiment is described as follows: Clonogenic assay. The format is cell-based, human. The note with it: 24 h treatment, 10-day endpoint. Here is the method:
The clonogenic assay was performed in accordance with the published methodology. MCF-7 cells were seeded in 24-well plates at 2.5 × 10^2 cells per well in 1 mL medium. Afterwards, they were left in an incubator at 37 °C for 24 h to attach to the wells. […] After the treatment, the medium was changed to a fresh one and left for 10 days, with an additional change in medium for the fresh one on the 7th day. Next, colonies formed by the seeded cells were washed, fixed for 10 min at 4 °C with 90% methanol, and stained with crystal violet solution (0.1% of crystal violet dissolved in 25% methanol). Afterwards, the plates were washed and dried at room temperature. The wells were photographed and analyzed using ImageJ software version 1.54k (Bethesda, MD, USA), with colonies defined as clusters of fifty or more cells.
Colonies formation was assessed after a 10-day incubation period following the treatment.

By IC50 is commonly meant the midpoint of a concentration-inhibition curve. Read a low IC50 as greater potency. As for `COc1ccc(C=C2SC(Nc3cc(OC)c(OC)c(OC)c3)=NC2=O)cc1` [Les-6381, 5-(4-Methoxybenzylidene)-2-((3,4,5-trimethoxyphenyl)amino)thiazol-4(5H)-one], the IC50 in experiment [1] (MCF-10A 24 h) was 8.37 ± 0.11 µM; in experiment [1] (MCF-10A 48 h) it was 0.97 ± 0.04 µM; in experiment [1] (MCF-10A 72 h), 2.03 ± 0.1 µM; in experiment [2] (MDA-MB-231 24 h) it was over 20 µM; in experiment [2] (MDA-MB-231 48 h), over 20 µM; in experiment [2] (MDA-MB-231 72 h) it was over 20 µM. In addition, the “cells with active caspase 7” value in experiment [3] is on record as 15.05 ± 1.73%.
In the case of `COc1cc(NC2=NC(=O)C(=Cc3ccc4cc[nH]c4c3)S2)cc(OC)c1OC` [Les-6416, 5-((1H-Indol-6-yl)methylene)-2-((3,4,5-trimethoxyphenyl)amino)thiazol-4(5H)-one], the IC50 in experiment [1] (MCF-10A 24 h) is over 20 µM; in experiment [1] (MCF-10A 48 h), 7.99 ± 0.48 µM; in experiment [1] (MCF-10A 72 h), 7.25 ± 0.3 µM; in experiment [2] (MDA-MB-231 24 h), over 20 µM; in experiment [2] (MDA-MB-231 48 h) it was over 20 µM; in experiment [2] (MDA-MB-231 72 h), over 20 µM. For the same compound, the results for the survival fraction in experiment [4] (2.5 µM) and in experiment [4] (5 µM) were 5.89 ± 0.71% and 1.35 ± 1.42%, respectively. Also, in experiment [3], the “cells with active caspase 7” value is on record as 47.90 ± 0.57%.
Turning to `COc1cccc2c1C(=O)c1c(O)c3c(c(O)c1C2=O)C[C@@](O)(C(=O)CO)C[C@@H]3O[C@H]1C[C@H](N)[C@H](O)[C@H](C)O1` [DOX, Doxorubicin hydrochloride, reference compound], the IC50 in experiment [1] (MCF-10A 24 h) is over 20 µM; in experiment [1] (MCF-10A 48 h), 0.16 ± 0.01 µM; in experiment [1] (MCF-10A 72 h), 0.11 ± 0.01 µM; in experiment [2] (MDA-MB-231 24 h), over 20 µM; in experiment [2] (MDA-MB-231 48 h), 3.91 ± 0.22 µM; in experiment [2] (MDA-MB-231 72 h), 2.37 ± 0.15 µM. In experiment [4] (1, 0.5, and 0.1 µM), this compound returned a survival fraction of 0%.
Take `COc1cc(NC2=NC(=O)C(=Cc3cccs3)S2)cc(OC)c1OC` [Les-6423, 5-(Thiophen-2-ylmethylene)-2-((3,4,5-trimethoxyphenyl)amino)thiazol-4(5H)-one]: the IC50 in experiment [2] (MDA-MB-231 24 h), in experiment [2] (MDA-MB-231 48 h) and in experiment [2] (MDA-MB-231 72 h) was over 20 µM each time.
With `COc1cc(NC2=NC(=O)C(=Cc3c[nH]c4ccccc34)S2)cc(OC)c1OC` [Les-6418, 5-((1H-Indol-3-yl)methylene)-2-((3,4,5-trimethoxyphenyl)amino)thiazol-4(5H)-one], the IC50 is over 20 µM in experiment [1] (MCF-10A 24 h); 7.24 ± 0.29 µM in experiment [1] (MCF-10A 48 h); 6.66 ± 0.67 µM in experiment [1] (MCF-10A 72 h); over 20 µM in experiment [2] (MDA-MB-231 24 h); over 20 µM in experiment [2] (MDA-MB-231 48 h); over 20 µM in experiment [2] (MDA-MB-231 72 h). For the same compound, the survival fraction is 38.83 ± 1.66% in experiment [4] (2.5 µM) and 12.27 ± 9.27% in experiment [4] (5 µM). In addition, the “cells with active caspase 7” value in experiment [3] turned out to be 19.85 ± 0.07%.

The values are drawn from article PMC12190436, “5-Ene-2-arylaminothiazol-4(5H)-ones Induce Apoptosis in Breast Cancer Cells” (Cells, 2025).
